Assay results as given in ChEMBL document CHEMBL1629443 (J Med Chem, 2010).
Active and inactive are the calls of the source. The rule behind the calls is not given here.

What was measured:
[1] = target: Cyclin-dependent kinase 2 (Homo sapiens, UniProt P24941); assay: Inhibition of CDK2 by flash plate based radioactive enzyme assay
[2] = target: Serine/threonine-protein kinase PLK1 (Homo sapiens, UniProt P53350); assay: Inhibition of PLK1 by flash plate based radioactive enzyme assay
[3] = tested on: SK-OV-3; assay: Cytotoxicity against human SKOV3 cells overexpressing HER2 by resazurin dye reduction assay; type: functional, cell-based
[4] = target: Protein deacetylase HDAC6 (Homo sapiens) (UniProt Q9UBN7); assay: (§1) Inhibition of human recombinant HDAC6 expressed in HEK293 cells; type: cell-based
[5] = target: Receptor tyrosine-protein kinase erbB-2 (Homo sapiens, UniProt P04626); assay: Inhibition of HER2 by flash plate based radioactive enzyme assay
[6] = tested on: A549; assay: Cytotoxicity against human A549 cells overexpressing HDAC by resazurin dye reduction assay
[7] = tested on: CAL-27; assay: Cytotoxicity against human CAL27 cells overexpressing EGFR by resazurin dye reduction assay
[8] = target: Tyrosine-protein kinase ABL1 (Homo sapiens, UniProt P00519); assay: Inhibition of ABL1 by flash plate based radioactive enzyme assay
[9] = target: T1, Epidermal growth factor receptor (Homo sapiens, UniProt P00533); assay: Inhibition of EGFR by flash plate based radioactive enzyme assay
[10] = tested on: A-431; assay: Cytotoxicity against human A431 cells overexpressing EGFR by resazurin dye reduction assay
[11] = target: Insulin receptor (Homo sapiens, UniProt P06213); assay: Inhibition of INSR by flash plate based radioactive enzyme assay
[12] = Inhibition of PKA by flash plate based radioactive enzyme assay
[13] = Inhibition of HDAC assessed as histone H3K'9+14 acetylation levels by cell based histone H3 hyperacetylation assay
[14] = target: T1, Epidermal growth factor receptor; assay: Inhibition of EGF-induced EGFR phosphorylation in human CAL27 cells overexpressing EGFR after 16 hrs by Western blot; type: cell-based, CAL-27
[15] = target: Histone deacetylase (Homo sapiens) (UniProt Q13547+O15379+Q9UBN7+Q92769+Q9UQL6+Q8WUI4+Q9BY41+Q96DB2+P56524+Q9UKV0+Q969S8); details: CAL-27, 1 uM
Description: Inhibition of HADC in human CAL27 cells overexpressing EGFR assessed as effect on histone H2 acetylation at 1 uM after 16 hrs by Western blot

[16] = target: T2, Protein deacetylase HDAC6 (Homo sapiens, UniProt Q9UBN7); assay: as §1; type: cell-based
T2 sequence (Q9UBN7 whole entry): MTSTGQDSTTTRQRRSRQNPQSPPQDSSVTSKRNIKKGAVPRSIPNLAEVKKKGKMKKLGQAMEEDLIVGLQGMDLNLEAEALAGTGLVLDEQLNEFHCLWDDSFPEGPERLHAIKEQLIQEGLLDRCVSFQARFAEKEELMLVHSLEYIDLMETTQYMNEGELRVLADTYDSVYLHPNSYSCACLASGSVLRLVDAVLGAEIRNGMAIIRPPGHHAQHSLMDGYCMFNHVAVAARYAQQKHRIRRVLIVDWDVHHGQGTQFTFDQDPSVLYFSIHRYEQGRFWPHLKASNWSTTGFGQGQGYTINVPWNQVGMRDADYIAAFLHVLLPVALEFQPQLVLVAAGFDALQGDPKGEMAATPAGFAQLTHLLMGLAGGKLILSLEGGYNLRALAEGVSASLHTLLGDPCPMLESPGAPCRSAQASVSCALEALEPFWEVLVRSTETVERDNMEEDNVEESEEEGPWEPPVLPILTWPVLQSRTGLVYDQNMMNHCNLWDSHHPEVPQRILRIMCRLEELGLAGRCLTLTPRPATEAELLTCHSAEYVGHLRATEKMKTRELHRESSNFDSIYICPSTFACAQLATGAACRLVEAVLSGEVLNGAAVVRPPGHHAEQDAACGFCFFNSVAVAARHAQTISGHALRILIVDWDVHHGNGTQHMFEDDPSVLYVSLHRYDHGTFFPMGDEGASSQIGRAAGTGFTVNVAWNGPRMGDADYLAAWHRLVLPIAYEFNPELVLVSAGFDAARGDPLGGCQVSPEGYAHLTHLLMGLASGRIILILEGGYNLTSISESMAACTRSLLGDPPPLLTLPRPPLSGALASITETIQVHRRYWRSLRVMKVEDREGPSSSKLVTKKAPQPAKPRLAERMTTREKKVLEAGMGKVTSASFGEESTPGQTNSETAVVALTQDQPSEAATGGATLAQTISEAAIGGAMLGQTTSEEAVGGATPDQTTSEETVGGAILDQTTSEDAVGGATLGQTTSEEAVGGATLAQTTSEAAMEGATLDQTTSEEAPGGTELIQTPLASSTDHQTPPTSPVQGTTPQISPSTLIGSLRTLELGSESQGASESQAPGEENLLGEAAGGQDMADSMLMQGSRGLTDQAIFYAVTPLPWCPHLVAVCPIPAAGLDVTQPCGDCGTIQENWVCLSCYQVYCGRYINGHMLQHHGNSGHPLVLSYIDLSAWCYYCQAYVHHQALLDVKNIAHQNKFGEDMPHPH

[17] = target: Platelet-derived growth factor receptor beta (Homo sapiens, UniProt P09619); assay: Inhibition of PDGFRbeta by flash plate based radioactive enzyme assay
[18] = tested on: SK-BR-3; assay: Cytotoxicity against human SKBR3 cells overexpressing HER2 by resazurin dye reduction assay
[19] = target: T3, Histone deacetylase 8 (Homo sapiens, UniProt Q9BY41); assay: Inhibition of Flag tagged human recombinant HDAC8 expressed in Sf21 cells
T3 sequence (Q9BY41 whole entry): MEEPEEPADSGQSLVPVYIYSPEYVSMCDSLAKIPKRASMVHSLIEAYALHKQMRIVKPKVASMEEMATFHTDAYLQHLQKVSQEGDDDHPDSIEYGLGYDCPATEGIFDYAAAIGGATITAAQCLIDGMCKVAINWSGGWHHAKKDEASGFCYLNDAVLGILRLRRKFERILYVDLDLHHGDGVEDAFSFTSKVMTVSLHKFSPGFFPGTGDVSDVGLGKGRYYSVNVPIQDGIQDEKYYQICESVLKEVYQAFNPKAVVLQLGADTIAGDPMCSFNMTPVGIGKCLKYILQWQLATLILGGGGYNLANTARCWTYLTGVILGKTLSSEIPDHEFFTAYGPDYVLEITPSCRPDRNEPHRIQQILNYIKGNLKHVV

[20] = target: Histone deacetylase; assay: Inhibition of HDAC in human HeLa cell nuclear extracts; type: cell-based
[21] = target: Histone deacetylase 3 (Homo sapiens, UniProt O15379); assay: Inhibition of Flag tagged human recombinant HDAC3 expressed in Sf21 cells coexpressing SMRT DAD domain
[22] = tested on: HeLa; assay: Cytotoxicity against human HeLa cells overexpressing HDAC by resazurin dye reduction assay
[23] = target: Histone deacetylase 1 (Homo sapiens, UniProt Q13547); assay: Inhibition of human recombinant HDAC1 expressed in HEK293 cells; type: cell-based
Histone deacetylase 1, sequence (Q13547 whole entry): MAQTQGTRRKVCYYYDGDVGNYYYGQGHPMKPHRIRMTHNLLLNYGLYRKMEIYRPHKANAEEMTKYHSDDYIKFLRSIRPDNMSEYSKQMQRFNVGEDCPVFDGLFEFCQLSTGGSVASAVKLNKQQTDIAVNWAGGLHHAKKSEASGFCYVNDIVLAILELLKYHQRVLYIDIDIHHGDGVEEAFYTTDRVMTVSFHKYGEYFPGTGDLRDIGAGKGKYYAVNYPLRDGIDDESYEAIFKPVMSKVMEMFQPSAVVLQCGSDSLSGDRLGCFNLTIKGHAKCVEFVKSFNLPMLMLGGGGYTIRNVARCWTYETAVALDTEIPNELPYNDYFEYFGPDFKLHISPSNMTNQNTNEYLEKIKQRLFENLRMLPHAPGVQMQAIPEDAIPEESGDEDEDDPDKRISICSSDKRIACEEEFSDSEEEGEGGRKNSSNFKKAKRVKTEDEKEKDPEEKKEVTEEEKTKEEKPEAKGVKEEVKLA

T1 sequence (P00533 whole entry): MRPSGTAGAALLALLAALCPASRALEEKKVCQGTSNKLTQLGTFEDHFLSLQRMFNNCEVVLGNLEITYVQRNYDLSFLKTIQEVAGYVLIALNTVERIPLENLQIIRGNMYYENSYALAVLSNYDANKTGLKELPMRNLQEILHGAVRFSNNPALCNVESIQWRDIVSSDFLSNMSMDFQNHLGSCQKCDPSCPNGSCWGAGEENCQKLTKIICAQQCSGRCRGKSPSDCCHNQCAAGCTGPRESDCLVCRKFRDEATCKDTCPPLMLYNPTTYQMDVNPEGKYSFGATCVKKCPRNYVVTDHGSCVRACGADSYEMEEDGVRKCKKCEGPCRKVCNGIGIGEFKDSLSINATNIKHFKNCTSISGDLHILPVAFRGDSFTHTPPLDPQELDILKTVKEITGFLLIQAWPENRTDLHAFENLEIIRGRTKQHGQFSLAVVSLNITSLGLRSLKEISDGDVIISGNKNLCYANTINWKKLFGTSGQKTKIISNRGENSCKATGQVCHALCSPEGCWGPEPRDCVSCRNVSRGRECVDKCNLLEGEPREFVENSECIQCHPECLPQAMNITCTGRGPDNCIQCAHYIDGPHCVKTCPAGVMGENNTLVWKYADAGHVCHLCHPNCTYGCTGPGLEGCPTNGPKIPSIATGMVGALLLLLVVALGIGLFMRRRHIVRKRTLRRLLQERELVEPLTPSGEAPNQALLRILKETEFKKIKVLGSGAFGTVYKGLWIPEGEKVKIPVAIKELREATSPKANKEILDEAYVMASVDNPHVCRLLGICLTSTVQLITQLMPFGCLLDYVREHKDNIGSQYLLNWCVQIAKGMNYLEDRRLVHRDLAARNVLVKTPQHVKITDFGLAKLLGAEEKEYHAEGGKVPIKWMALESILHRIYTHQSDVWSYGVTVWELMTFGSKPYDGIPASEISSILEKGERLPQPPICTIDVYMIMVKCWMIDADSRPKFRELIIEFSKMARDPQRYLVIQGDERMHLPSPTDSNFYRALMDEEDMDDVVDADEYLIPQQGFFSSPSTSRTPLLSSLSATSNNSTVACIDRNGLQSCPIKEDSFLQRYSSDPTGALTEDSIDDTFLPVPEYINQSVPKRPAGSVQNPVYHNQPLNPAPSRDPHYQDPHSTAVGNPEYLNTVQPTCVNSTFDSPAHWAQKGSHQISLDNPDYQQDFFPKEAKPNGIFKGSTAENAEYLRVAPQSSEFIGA
Serine/threonine-protein kinase PLK1, sequence (P53350 whole entry): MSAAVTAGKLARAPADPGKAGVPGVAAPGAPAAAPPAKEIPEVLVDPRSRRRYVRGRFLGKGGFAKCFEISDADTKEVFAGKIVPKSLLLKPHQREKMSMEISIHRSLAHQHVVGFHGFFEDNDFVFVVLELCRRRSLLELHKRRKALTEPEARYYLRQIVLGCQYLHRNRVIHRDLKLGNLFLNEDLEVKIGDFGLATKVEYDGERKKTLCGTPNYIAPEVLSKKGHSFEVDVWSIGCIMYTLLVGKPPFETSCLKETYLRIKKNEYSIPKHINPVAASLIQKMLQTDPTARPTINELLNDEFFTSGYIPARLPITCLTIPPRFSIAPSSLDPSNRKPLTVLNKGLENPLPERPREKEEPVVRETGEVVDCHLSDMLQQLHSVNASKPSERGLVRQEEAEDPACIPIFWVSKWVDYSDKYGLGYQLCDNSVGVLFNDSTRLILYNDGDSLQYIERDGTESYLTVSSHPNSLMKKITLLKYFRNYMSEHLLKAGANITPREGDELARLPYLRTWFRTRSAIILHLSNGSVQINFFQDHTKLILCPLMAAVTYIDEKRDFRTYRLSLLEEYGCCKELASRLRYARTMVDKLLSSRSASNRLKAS
Tyrosine-protein kinase ABL1, sequence (P00519 whole entry): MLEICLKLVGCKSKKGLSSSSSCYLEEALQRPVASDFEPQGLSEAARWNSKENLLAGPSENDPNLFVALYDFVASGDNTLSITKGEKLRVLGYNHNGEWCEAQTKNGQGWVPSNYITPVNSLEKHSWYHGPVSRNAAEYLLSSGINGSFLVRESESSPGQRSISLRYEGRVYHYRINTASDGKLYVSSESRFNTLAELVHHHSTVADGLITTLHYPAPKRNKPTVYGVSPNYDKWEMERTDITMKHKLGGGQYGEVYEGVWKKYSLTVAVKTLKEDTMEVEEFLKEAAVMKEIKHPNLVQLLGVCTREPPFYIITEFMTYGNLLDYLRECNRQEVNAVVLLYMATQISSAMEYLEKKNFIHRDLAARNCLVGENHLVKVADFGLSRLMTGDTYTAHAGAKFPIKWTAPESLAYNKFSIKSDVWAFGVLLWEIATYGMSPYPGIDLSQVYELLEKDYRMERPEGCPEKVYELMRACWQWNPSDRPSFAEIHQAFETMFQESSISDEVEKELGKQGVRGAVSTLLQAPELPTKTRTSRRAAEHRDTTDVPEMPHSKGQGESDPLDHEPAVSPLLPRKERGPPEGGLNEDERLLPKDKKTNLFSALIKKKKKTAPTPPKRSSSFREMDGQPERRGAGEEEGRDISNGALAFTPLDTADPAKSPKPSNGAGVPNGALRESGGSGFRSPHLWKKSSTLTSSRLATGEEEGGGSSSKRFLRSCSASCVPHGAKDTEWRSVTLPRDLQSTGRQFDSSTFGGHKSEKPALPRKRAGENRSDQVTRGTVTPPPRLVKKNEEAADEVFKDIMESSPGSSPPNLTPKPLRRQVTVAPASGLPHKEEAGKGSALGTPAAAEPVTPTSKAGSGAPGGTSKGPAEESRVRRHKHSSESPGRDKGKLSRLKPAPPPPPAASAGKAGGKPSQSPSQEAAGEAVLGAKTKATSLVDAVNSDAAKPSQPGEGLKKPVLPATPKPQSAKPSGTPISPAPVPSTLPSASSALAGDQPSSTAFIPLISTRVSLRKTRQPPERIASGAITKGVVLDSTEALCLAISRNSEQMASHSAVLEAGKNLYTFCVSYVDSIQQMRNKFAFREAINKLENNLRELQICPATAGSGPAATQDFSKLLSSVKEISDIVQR
Receptor tyrosine-protein kinase erbB-2, sequence (P04626 whole entry): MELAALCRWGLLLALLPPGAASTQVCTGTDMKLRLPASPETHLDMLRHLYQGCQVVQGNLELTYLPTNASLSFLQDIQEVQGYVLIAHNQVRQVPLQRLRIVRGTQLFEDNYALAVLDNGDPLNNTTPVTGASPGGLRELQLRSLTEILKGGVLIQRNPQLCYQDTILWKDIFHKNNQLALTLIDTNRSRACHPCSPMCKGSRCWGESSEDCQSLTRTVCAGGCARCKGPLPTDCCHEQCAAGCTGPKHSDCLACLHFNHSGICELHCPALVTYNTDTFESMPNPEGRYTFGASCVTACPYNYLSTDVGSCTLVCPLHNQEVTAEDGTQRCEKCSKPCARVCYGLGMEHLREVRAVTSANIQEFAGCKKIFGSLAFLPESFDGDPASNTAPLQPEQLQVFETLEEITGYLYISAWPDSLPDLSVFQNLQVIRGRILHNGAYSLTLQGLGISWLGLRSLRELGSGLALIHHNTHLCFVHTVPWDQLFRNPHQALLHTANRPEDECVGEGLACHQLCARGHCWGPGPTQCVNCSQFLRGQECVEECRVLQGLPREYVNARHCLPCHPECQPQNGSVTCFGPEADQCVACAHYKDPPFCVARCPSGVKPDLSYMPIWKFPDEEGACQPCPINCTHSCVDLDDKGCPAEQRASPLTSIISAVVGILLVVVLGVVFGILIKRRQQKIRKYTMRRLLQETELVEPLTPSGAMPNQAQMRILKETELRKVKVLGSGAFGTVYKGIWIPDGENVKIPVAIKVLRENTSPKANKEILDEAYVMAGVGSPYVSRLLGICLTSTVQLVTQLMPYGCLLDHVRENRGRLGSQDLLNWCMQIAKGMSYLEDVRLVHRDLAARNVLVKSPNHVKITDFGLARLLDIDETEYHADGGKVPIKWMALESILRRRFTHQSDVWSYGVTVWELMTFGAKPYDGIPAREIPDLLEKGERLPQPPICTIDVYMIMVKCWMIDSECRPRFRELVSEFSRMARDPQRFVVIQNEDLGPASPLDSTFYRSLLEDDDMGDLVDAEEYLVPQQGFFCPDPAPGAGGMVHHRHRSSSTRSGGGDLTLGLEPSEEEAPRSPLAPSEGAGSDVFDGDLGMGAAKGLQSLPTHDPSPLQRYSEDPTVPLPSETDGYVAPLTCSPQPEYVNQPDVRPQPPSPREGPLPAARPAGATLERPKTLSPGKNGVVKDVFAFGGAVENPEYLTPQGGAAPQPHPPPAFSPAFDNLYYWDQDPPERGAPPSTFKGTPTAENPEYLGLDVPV

O=C(/C=C/c1ccc(-c2ccc3ncnc(Nc4ccc(OCc5cccc(F)c5)c(Cl)c4)c3c2)s1)NO
IC50 [1]: 440 nM
IC50 [2]: 2700 nM
IC50 [3]: 4000 nM
Emax [4]: 70%
IC50 [5]: 3.5 nM
IC50 [6]: 2600 nM
IC50 [7]: 660 nM
IC50 [8]: 2700 nM
IC50 [9]: 4.8 nM
IC50 [10]: 730 nM
IC50 [11]: 1900 nM
IC50 [12]: 35000 nM
EC50 [13]: > 100000 nM

O=C(/C=C/c1cccc(-c2ccc3ncnc(Nc4ccc(OCc5cccc(F)c5)c(Cl)c4)c3c2)c1)NO
IC50 [1]: 920 nM
IC50 [14]: 500 nM
inhibition [15]: Active
IC50 [2]: 6800 nM
IC50 [3]: 1000 nM
IC50 [16]: 86 nM
IC50 [5]: 11 nM
IC50 [6]: 1200 nM
IC50 [17]: 2500 nM
IC50 [18]: 350 nM
IC50 [19]: 630 nM
IC50 [20]: 47 nM
IC50 [21]: 66 nM
IC50 [7]: 590 nM
IC50 [22]: 970 nM
IC50 [8]: 5300 nM
IC50 [9]: 18 nM
IC50 [23]: 35 nM
IC50 [10]: 720 nM
IC50 [11]: 3600 nM
IC50 [12]: > 100000 nM
EC50 [13]: 4700 nM
